Assays:
BTK [1] = target: BTK (Homo sapiens (Human), UniProt Q06187); test: Detection of BTK degradation in Mino cells; format: cell-based
Description: Mino human mantle cell lymphoma cell line was purchased from ATCC and cultured under the following conditions: RPMI-1640+15% FBS+1% double antibody in a 37° C., 5% CO2 incubator. Cells were plated in a 6-well plate, with 5×10^5 cells/well. After plating, the compounds at different concentrations were added and cultured in an incubator at 37° C. under 5% CO2 for 48 hours. After culturing, the cells were collected, and RIPA lysis buffer (Beyotime, Cat. P0013B) was added. The cells were lysed on ice for 15 minutes and centrifuged at 12000 rpm at 4° C. for 10 minutes. The protein sample of the supernatant was collected, and the protein was quantified by using the BCA kit (Beyotime, Cat. P0009), and then the protein was diluted to 0.25 mg/mL. The expressions of BTK (CST, Cat. 8547S) and the internal reference (3-actin (CST, Cat. 3700S) were detected using a fully automated western blot quantitative analyzer (Proteinsimple) with a kit (Protein simple, Cat. SM-W004). The expression level of BTK relative to the internal reference was calculated using Compass software, and the DC50 value was calculated using Origen9.2 software according to formula (1). Specifically, the BTK administration denoted the expression level of BTK in administration groups at different doses, and the BTK vehicle denoted the expression level of BTK in the vehicle control group. […]

BTK [2] = target: BTK (Mus musculus (Mouse), UniProt P35991); test: Detection of BTK protein degradation in spleen of mice; format: in vivo
BTK (Mus musculus (Mouse), UniProt P35991), sequence (P35991 whole entry): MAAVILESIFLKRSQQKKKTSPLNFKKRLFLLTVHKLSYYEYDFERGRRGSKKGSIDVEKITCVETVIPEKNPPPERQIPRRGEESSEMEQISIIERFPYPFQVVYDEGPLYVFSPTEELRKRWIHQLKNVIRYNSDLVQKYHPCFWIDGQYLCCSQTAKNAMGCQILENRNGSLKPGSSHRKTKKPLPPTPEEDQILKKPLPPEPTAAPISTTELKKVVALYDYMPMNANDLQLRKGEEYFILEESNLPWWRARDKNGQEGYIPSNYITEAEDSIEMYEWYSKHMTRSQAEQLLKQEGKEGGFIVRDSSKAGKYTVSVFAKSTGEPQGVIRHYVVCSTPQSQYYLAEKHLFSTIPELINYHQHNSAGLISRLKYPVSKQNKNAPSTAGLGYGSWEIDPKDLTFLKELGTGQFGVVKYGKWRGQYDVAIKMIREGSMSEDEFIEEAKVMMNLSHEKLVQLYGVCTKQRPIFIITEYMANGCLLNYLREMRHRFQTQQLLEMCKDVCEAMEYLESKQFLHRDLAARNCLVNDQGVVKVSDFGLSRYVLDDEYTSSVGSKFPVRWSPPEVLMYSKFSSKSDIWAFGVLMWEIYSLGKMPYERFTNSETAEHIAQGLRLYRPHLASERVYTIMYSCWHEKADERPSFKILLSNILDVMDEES
Description: Female ICR mice, 6-8 weeks old, were purchased from BEIJING VITAL RIVER LABORATORY ANIMAL TECHNOLOGY CO., LTD., and the experiment was started after 3 days of acclimatization. After intragastric administration of different doses of the compound for 3 consecutive days, the spleen of mice was taken, the spleen cells were collected, and RIPA lysis buffer (Beyotime, Cat. P0013B) was added. The cells were lysed on ice for 15 minutes and centrifuged at 12000 rpm at 4° C. for 10 minutes. The protein sample of the supernatant was collected, the protein was quantified by using the BCA kit (Beyotime, Cat. P0009), and then the protein was diluted to 0.25 mg/mL. The expressions of BTK (CST, Cat. 8547S) and the internal reference (3-actin (CST, Cat. 3700S) were detected using a fully automated western blot quantitative analyzer (Proteinsimple). The expression level of BTK relative to the internal reference was calculated using Compass software, and the DD50 value was calculated using Origen9.2 software according to formula (2). Specifically, the BTKadministration denoted the expression level of BTK in administration groups at different doses, and the BTKvehicle denoted the expression level of BTK in the vehicle control group.
BTK %=BTKadministration/BTKvehicle×100 formula (2)

BTK wt = BTK wt (Homo sapiens (Human), UniProt Q06187); test: In vitro kinase detection, BTK wt; format: biochemical
BTK wt, sequence (Q06187 whole entry): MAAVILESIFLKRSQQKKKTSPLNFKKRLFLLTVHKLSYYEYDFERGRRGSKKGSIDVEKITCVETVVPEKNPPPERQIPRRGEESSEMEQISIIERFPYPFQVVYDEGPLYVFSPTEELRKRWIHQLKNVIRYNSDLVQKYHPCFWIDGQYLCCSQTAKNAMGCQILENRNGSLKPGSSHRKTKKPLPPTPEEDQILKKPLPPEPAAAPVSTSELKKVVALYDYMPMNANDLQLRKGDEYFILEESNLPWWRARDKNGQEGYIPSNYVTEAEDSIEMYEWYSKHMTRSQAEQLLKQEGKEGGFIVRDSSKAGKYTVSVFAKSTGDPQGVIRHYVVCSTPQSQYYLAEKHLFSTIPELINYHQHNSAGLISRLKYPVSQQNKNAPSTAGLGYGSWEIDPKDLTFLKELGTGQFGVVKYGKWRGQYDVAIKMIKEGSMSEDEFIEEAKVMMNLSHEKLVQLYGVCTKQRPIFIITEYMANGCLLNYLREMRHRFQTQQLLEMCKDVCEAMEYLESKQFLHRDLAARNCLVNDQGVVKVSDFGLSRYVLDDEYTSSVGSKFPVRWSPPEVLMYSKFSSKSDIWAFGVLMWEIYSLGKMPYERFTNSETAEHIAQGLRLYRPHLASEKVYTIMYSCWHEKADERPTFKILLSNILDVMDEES
Description: (§1) Kinases BTK wt (Carna, Cat. No. 08-180) and BTK C481S (Cama, Cat. No. 08-547) were prepared into a 2.5× kinase solution, and the substrates FAM-P2 (GL Biochem, Cat. No. 112394) and ATP (Sigma, Cat. No. A7699-1G) were prepared into a 2.5× substrate solution, respectively. 5 μL of compounds at different concentrations were added to a 384-well plate. 10 μl of 2.5× kinase solution was added, and the resulting mixture was incubated at room temperature for 10 min. 10 μL of 2.5× substrate solution was added, and the mixture was incubated at 28° C. for an appropriate period of time. The reaction was stopped by adding 30 μL of stop buffer, and the detection was carried out by using Caliper EZ reader2. The IC50 value was calculated by using XLFit excel add-in version 5.4.0.8 software. The calculation formula of the inhibition rate was shown in formula (3), wherein max denoted the readout of the DMSO control, min denoted the readout of the negative control, and conversion denoted the readout of the compound

BTK C481S = BTK C481S (Homo sapiens (Human), UniProt Q06187, C481S); test: In vitro kinase detection, BTK C481S; format: biochemical
BTK C481S, sequence (Q06187 whole entry C481S): as the sequence (Q06187 whole entry) above, with C481S counted along it
Description: as §1

BTK (Homo sapiens (Human), UniProt Q06187), sequence (Q06187 whole entry): as the sequence (Q06187 whole entry) above

## Nc1ncnc2c1c(-c1ccc(Oc3ccccc3)cc1)nn2C1CCN(C2CN(C3CN(c4ccc5c(c4)C(=O)N(C4CCC(=O)NC4=O)C5=O)C3)C2)CC1 (stereo not shown) [Compound 1, 5-[3-[3-[4-[4-amino-3-(4-phenoxyphenyl]pyrazolo[3,4-d]pyrimidin-1-yl]-1-piperidyl]azetidin-1-yl]azetidin-1-yl]-2-(2,6-dioxo-3-piperidyl)isoindoline-1,3-dione]
BTK [1]
  degradation effect on BTK in Mino cells (conclusion): significant degradation effect
BTK [1]; 48 hours, western blot
  DC50: 10.9 nM
BTK [2]
  degradation effect on BTK proteins in spleen of mice (conclusion): significant degradation effect
BTK wt
  IC50: 6.3 nM
  inhibitory effect on BTK wt kinase (conclusion): significant inhibitory effect
BTK C481S
  IC50: 8 nM
  inhibitory effect on BTK C481S kinase (conclusion): significant inhibitory effect
